Experimental data reported in patent US20130131161A1, “METHODS AND COMPOSITIONS FOR CARDIOVASCULAR DISEASES AND CONDITIONS” (priority 2009, published 2013).

Test system: Human umbilical vein endothelial cells (HUVECs)
Assay: Comparison of LA-419 and ISDN: NO and ONOO− release from HUVECs measured with tandem electrochemical nanosensors (Example 1)
Assay type: cell-based
Settings: for NO release (mean ± S.D.) / ONOO− release (mean ± S.D.): 500 nM, 12 hours, then CaI (1.0 μM); for decrease in NO release / increase in levels of ONOO− / decrease in the NO/ONOO− ratio: pretreatment 12 h
Method: Human umbilical vein endothelial cells (HUVECs) were isolated into primary cultures and purchased as proliferating cells from Clonetics (San Diego, Calif.). All cell culture donors were healthy, with no pregnancy or prenatal complications. The cultured cells were incubated in 95% air/5% CO2 at 37° C. and passage by an enzymatic (trypsin) procedure. The confluent cells (4 to 5×10^5 cells per 35-mm dish) were placed with minimum essential medium containing 3 mM L-arginine and 0.1 mM BH4 [(6R)-5,6,7,8-tetrahydrobiopterin]. Before the experiments, the cells (from second or third passage) were rinsed twice with Tyrode-HEPES buffer with 1.8 mM CaCl2. ISDN was obtained from Sigma-Aldrich.
Concurrent measurements of NO and ONOO^− were carried out with tandem electrochemical nanosensors combined into one working unit with a total diameter of 200-500 nm (FIG. 1). Their design was based on previously developed and well-characterized chemically modified carbon-fiber technology (Malinski and Taha, 1992; Lvovich and Scheeline, 1997). Each of the nanosensors was made by depositing a sensing material on the tip of a carbon fiber (length 4-5 μm, diameter 0.2-0.5 μm). The fibers were sealed with nonconductive epoxy and electrically connected to copper wires with conductive silver epoxy. A conductive film of polymeric nickel (II) tetrakis(3-methoxy-4-hydroxyphenyl)porphyrin for the NO-sensor and polymeric film of Mn (III) [2.2]paracyclophanylporphyrin was used for the ONOO^−-sensor.
A module of NO/ONOO^− nanosensors (diameter 1-2 μm) with a platinum wire (0.1 mm) counter electrode and saturated calomel reference electrode (SCE) were applied. Differential pulse voltammetry (DPV) and amperometry were performed with a computer-based Gamry VFP600 multichannel potentiostat. DPV was used to measure the basal NO and ONOO^− concentrations, and amperometry was used to measure changes in NO and ONOO^− concentrations from its basal level with time. The DPV current at the peak potential characteristic for NO oxidation (0.65 V) and ONOO^− reduction (−0.45 V) was directly proportional to the local concentrations of these compounds in the immediate vicinity of the sensor. Linear calibration curves (current vs. concentration) were constructed for each sensor from 10 nM to 3 μM before and after measurements with aliquots of NO and ONOO^− standard solutions, respectively. The detection limit of the sensors was 1.0 nM.
The quantification of each analyte (concentration in nM) was performed using a maximum current from amperograms and standard calibration curves. A reproducibility of measurements with nanosensors is relatively high (between 5-12%). […] The sensors were slowly raised 5±2 μm from the surface of a single endothelial cell. The eNOS agonist, calcium ionophore A23187 (CaI) as well as the different drugs were then added to the surrounding media at the cell surface with a nanoinjector that was also positioned by a computer controlled-micromanipulator.
The HUVEC preparation is stable over the course of these experiments with the cells remaining viable in culture for >24 hours. Under non-stimulating conditions, basal levels of NO release are very low (<30 nM). Measurement of NO release as a function of treatment was conducted in individual endothelial cells. Multiple measurements of NO release can be conducted on single cells following a brief refractory period. For robust statistical analysis, separate cells were used for each concentration and type of drug used in these analyses.

[1] = HUVECs from Non-Hispanic Whites

O=[N+]([O-])O[C@H]1CO[C@H]2[C@@H]1OC[C@H]2O[N+](=O)[O-] [ISDN, isosorbide dinitrate]
NO release (mean ± S.D.) (HUVECs from African Americans): 218 ± 16 nM
ONOO− release (mean ± S.D.) (HUVECs from African Americans): 552 ± 11 nM
NO release (mean ± S.D.) [1]: 343 ± 11 nM
ONOO− release (mean ± S.D.) [1]: 323 ± 9 nM
decrease in NO release (HUVECs from African Americans): 12%
increase in levels of ONOO− (HUVECs from African Americans): 18%
decrease in the NO/ONOO− ratio (HUVECs from African Americans, p<0.05): 25%
decrease in NO release (HUVECs from non-Hispanic whites): 11%
decrease in the NO/ONOO− ratio (HUVECs from non-Hispanic whites, p<0.01): 23%
increase in levels of ONOO− (HUVECs from whites): 16%
